{
  "source": "patent US11691969B2",
  "about": "“Pyridazinones as PARP7 inhibtors” (Ribon Therapeutics, Inc., priority 2019, dated 2023)",
  "data": [
    {"target": "PARP7 (Homo sapiens (Human), UniProt Q7Z3E1)", "sequence (Q7Z3E1 whole entry)": "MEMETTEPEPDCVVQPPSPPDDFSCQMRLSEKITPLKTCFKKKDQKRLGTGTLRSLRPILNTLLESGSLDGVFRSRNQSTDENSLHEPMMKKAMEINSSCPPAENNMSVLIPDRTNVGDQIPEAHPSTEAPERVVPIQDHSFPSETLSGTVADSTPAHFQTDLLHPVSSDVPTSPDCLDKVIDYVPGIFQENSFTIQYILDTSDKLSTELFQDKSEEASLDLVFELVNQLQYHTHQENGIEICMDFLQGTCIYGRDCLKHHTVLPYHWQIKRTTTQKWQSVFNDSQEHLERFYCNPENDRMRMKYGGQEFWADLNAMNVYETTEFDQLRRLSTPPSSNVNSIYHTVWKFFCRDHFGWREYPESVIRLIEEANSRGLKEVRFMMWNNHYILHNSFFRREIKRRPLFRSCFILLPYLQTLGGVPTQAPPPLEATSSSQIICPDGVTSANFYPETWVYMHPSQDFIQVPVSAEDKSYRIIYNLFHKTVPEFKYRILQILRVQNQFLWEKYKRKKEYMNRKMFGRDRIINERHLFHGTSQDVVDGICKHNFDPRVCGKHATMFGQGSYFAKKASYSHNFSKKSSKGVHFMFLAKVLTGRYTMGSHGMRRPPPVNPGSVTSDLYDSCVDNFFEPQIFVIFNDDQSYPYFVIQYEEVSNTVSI", "test": "TR-FRET assay: displacement of biotinylated Probe A from the TIPARP active site (Enzymatic Assay for Inhibition of PARP7)", "assay_type": "binding", "conditions": "TIPARP 6 nM, Probe A 2 nM, 25° C.", "description": "Example A. Enzymatic Assay for Inhibition of PARP7\nDisplacement of Probe A, a biotinylated probe binding to the TIPARP active site, was measured using a time-resolved fluorescence energy transfer (TR-FRET) assay. 20 nL of a dose response curve of each test compound was spotted in black 384-well polystyrene proxiplates (Perkin Elmer) using a Mosquito (TTP Labtech). Reactions were performed in a 8 μl volume by adding 6 μL of TIPARP and Probe A in assay buffer (20 mM HEPES pH=8, 100 mM NaCl, 0.1% bovine serum albumin, 2 mM DTT and 0.002% Tween20), incubating with test compound at 25° C. for 30 min, then adding 2 μL of ULight-anti 6×His and LANCE Eu-W1024 labeled streptavidin (Perkin Elmer). The final concentrations of TIPARP and Probe A were 6 nM and 2 nM, respectively. The final concentration of ULight-anti 6×His and LANCE Eu-W1024 labeled streptavidin were 4 nM and 0.25 nM, respectively. Reactions were incubated at 25° C. for an additional 30 min, then read on an Envision platereader equipped with a LANCE/DELFIA top mirror (Perkin Elmer) using excitation of 320 nm and emission of 615 nm and […] with a […]. The ratio of the 665/615 nm emission were calculated for each well to determine the amount of complex of TIPARP and Probe Ain each well. Control wells containing a negative control of 0.25% DMSO vehicle or a positive control of 100 μM 5-(5-(piperidin-4-yloxy)isoindolin-2-yl)-4-(trifluoromethyl)pyridazin-3(2H)-one were used to calculate the % inhibition as described below:\n[formula] where TRFcmpd is the TR-FRET ratio from the compound treated well, TRFmin is the TR-FRET ratio from the 5-(5-(piperidin-4-yloxy)isoindolin-2-yl)-4-(trifluoromethyl)pyridazin-3(2H)-one—treated positive control well and TRFmax is the TR-FRET ratio from the DMSO-treated negative control well. The % inhibition values were plotted as a function of compound concentration and the following 4-parameter fit was applied to derive the IC50 values:\n[formula] where top and bottom are normally allowed to float, but may be fixed at 100 or 0 respectively in a 3-parameter fit. The Hill Coefficient is normally allowed to float but may also be fixed at 1 in a 3-parameter fit. Y is the % inhibition and X is the compound concentration. Synthesis of Probe A", "units": {"IC50": "nM"}, "values": [
      {"smiles": "C[C@@H](CO[C@@H]1CCN([C@H]2CCN(c3ncc(C(F)(F)F)cn3)C[C@H]2F)C1=O)Nc1cn[nH]c(=O)c1C(F)(F)F", "note": "(single isomer, unassigned) [Example 39B]", "IC50": "< 100"},
      {"smiles": "C[C@@H](CO[C@H]1CCN(C2CCN(c3ncc(C(F)(F)F)cn3)CC2)C1=O)Oc1cn[nH]c(=O)c1C(F)(F)F", "note": "[Example 20A, 5-(((S)-1-(((S)-2-oxo-1-(1-(5-(trifluoromethyl)pyrimidin-2-yl)piperidin-4-yl)pyrrolidin-3-yl)oxy)propan-2-yl)oxy)-4-(trifluoromethyl)pyridazin-3(2H)-one]", "IC50": "< 100"},
      {"smiles": "C[C@@H](CO[C@H]1CCN(C2CCN(c3ncc(C(F)(F)F)cn3)CC2)C1=O)Nc1cn[nH]c(=O)c1C(F)(F)F", "note": "[Example 10A, 5-((S)-1-((S)-1-(1-(5-(trifluoromethyl)pyrimidin-2-yl)piperidin-4-yl)-2-oxopyrrolidin-3-yloxy)propan-2-ylamino)-4-(trifluoromethyl)pyridazin-3(2H)-one]", "IC50": "100 to 1000"},
      {"smiles": "C[C@@H](CO[C@@H]1CCN([C@@H]2CCN(c3ccc(C#N)cn3)CC2(F)F)C1=O)Nc1cn[nH]c(=O)c1C(F)(F)F", "note": "(single isomer, unassigned) [Example 40A]", "IC50": "< 100"},
      {"smiles": "C[C@@H](COCC(=O)N[C@@H]1CCN(c2ncc(C(F)(F)F)cn2)C[C@H]1O)Nc1cn[nH]c(=O)c1C(F)(F)F", "note": "(single isomer, unassigned) [Example 33A]", "IC50": "< 100"},
      {"smiles": "C[C@@H](CO[C@@H]1CCN(C2CCN(c3ncc(F)cn3)CC2)C1=O)Nc1cn[nH]c(=O)c1C(F)(F)F", "note": "[Example 42, 5-(((S)-1-(((R)-1-(1-(5-fluoropyrimidin-2-yl)piperidin-4-yl)-2-oxopyrrolidin-3-yl)oxy)propan-2-yl)amino)-4-(trifluoromethyl)pyridazin-3(2H)-one]", "IC50": "< 100"},
      {"smiles": "COC[C@@H](CO[C@@H]1CCN(C2CCN(c3ncc(C(F)(F)F)cn3)CC2)C1=O)Oc1cn[nH]c(=O)c1C(F)(F)F", "note": "[Example 51B, 5-(((S)-1-methoxy-3-(((R)-2-oxo-1-(1-(5-(trifluoromethyl)pyrimidin-2-yl)piperidin-4-yl)pyrrolidin-3-yl)oxy)propan-2-yl)oxy)-4-(trifluoromethyl)pyridazin-3(2H)-one]", "IC50": "< 100"},
      {"smiles": "COC[C@@H](CO[C@@H]1CCN(C2CCN(c3ccc(C#N)cn3)CC2)C1=O)Oc1cn[nH]c(=O)c1Br", "note": "[Example 55B, 6-(4-((R)-3-((S)-2-((5-bromo-6-oxo-1,6-dihydropyridazin-4-yl)oxy)-3-methoxypropoxy)-2-oxopyrrolidin-1-yl)piperidin-1-yl)nicotinonitrile]", "IC50": "< 100"},
      {"smiles": "COC[C@@H](CO[C@@H]1CCN(C2CCN(c3ncc(C)cn3)CC2)C1=O)Oc1cn[nH]c(=O)c1C(F)(F)F", "note": "[Example 52B, 5-(((S)-1-methoxy-3-(((R)-1-(1-(5-methylpyrimidin-2-yl)piperidin-4-yl)-2-oxopyrrolidin-3-yl)oxy)propan-2-yl)oxy)-4-(trifluoromethyl)pyridazin-3(2H)-one]", "IC50": "< 100"},
      {"smiles": "C[C@@H](COC1CCN([C@@H]2CCN(c3ncc(C(F)(F)F)cn3)C[C@H]2O)C1=O)Oc1cn[nH]c(=O)c1C(F)(F)F", "note": "(stereo partly drawn) [Example 65, 5-(((2S)-1-((1-((3R,4R)-3-hydroxy-1-(5-(trifluoromethyl)pyrimidin-2-yl)piperidin-4-yl)-2-oxopyrrolidin-3-yl)oxy)propan-2-yl)oxy)-4-(trifluoromethyl)pyridazin-3(2H)-one]", "IC50": "< 100"},
      {"smiles": "C[C@@H](COCC(=O)N(C)C1CCN(c2ccc(C#N)cn2)CC1)Nc1cn[nH]c(=O)c1C(F)(F)F", "note": "[Example 6, (S)—N-(1-(5-cyanopyridin-2-yl)piperidin-4-yl)-N-methyl-2-(2-((6-oxo-5-(trifluoromethyl)-1,6-dihydropyridazin-4-yl)amino)propoxy)acetamide]", "IC50": "< 100"},
      {"smiles": "C[C@@H](CO[C@@H]1CCN([C@H]2CCN(c3ncc(C(F)(F)F)cn3)C[C@@H]2O)C1=O)Nc1cn[nH]c(=O)c1C(F)(F)F", "note": "[Example 58, 5-(((S)-1-(((R)-1-((3S,4S)-3-hydroxy-1-(5-(trifluoromethyl)pyrimidin-2-yl)piperidin-4-yl)-2-oxopyrrolidin-3-yl)oxy)propan-2-yl)amino)-4-(trifluoromethyl)pyridazin-3(2H)-one]", "IC50": "< 100"},
      {"smiles": "Cc1cnc(N2CCC(N3CC[C@@H](OC[C@H](C)Oc4cn[nH]c(=O)c4C(F)(F)F)C3=O)CC2)nc1", "note": "[Example 49B, 5-(((S)-1-(((R)-1-(1-(5-methylpyrimidin-2-yl)piperidin-4-yl)-2-oxopyrrolidin-3-yl)oxy)propan-2-yl)oxy)-4-(trifluoromethyl)pyridazin-3(2H)-one]", "IC50": "< 100"},
      {"smiles": "C[C@@H](COCC(=O)N(C)C1CCN(c2ncc(C(F)(F)F)cn2)CC1)Oc1cn[nH]c(=O)c1C(F)(F)F", "note": "[Example 25, (S)-N-methyl-2-(2-((6-oxo-5-(trifluoromethyl)-1,6-dihydropyridazin-4-yl)oxy)propoxy)-N-(1-(5-(trifluoromethyl)pyrimidin-2-yl)piperidin-4-yl)acetamide]", "IC50": "< 100"},
      {"smiles": "C[C@@H](CO[C@@H]1CCN(C2CCN(c3cnc(C(F)F)cn3)CC2)C1=O)Nc1cn[nH]c(=O)c1C(F)(F)F", "note": "[Example 22B, 5-(((S)-1-(((R)-1-(1-(5-(difluoromethyl)pyrazin-2-yl)piperidin-4-yl)-2-oxopyrrolidin-3-yl)oxy)propan-2-yl)amino)-4-(trifluoromethyl)pyridazin-3(2H)-one]", "IC50": "< 100"},
      {"smiles": "C[C@@H](CO[C@H]1CCN(C2CCN(c3ncc(C(F)(F)F)cn3)CC2)C1=O)Oc1cn[nH]c(=O)c1Cl", "note": "[Example 47A, 4-chloro-5-(((S)-1-(((S)-2-oxo-1-(1-(5-(trifluoromethyl)pyrimidin-2-yl)piperidin-4-yl)pyrrolidin-3-yl)oxy)propan-2-yl)oxy)pyridazin-3(2H)-one]", "IC50": "100 to 1000"},
      {"smiles": "C[C@@H](CO[C@@H]1CCN(C2CCN(c3ccc(C#N)cn3)CC2)C1=O)Nc1cn[nH]c(=O)c1C(F)(F)F", "note": "[Example 14B, 6-(4-((R)-2-oxo-3-((S)-2-((6-oxo-5-(trifluoromethyl)-1,6-dihydropyridazin-4-yl)amino)propoxy)pyrrolidin-1-yl)piperidin-1-yl)nicotinonitrile]", "IC50": "< 100"},
      {"smiles": "COC[C@@H](CO[C@@H]1CCN(C2CCN(c3ncc(C(F)(F)F)cn3)CC2)C1=O)Oc1cn[nH]c(=O)c1Br", "note": "[Example 56B, 4-Bromo-5-(((S)-1-methoxy-3-(((R)-2-oxo-1-(1-(5-(trifluoromethyl)pyrimidin-2-yl)piperidin-4-yl)pyrrolidin-3-yl)oxy)propan-2-yl)oxy)pyridazin-3(2H)-one]", "IC50": "< 100"},
      {"smiles": "C[C@@H](CO[C@@H]1CCN([C@@H]2CCN(c3ncc(C(F)(F)F)cn3)C[C@H]2F)C1=O)Nc1cn[nH]c(=O)c1C(F)(F)F", "note": "(single isomer, unassigned) [Example 38A]", "IC50": "< 100"},
      {"smiles": "C[C@@H](COCC(=O)NC1CCN(c2ncc(C(F)(F)F)cn2)CC1)Nc1cn[nH]c(=O)c1C(F)(F)F", "note": "[Example 1, (S)-2-(2-(6-oxo-5-(trifluoromethyl)-1,6-dihydropyridazin-4-ylamino)propoxy)-N-(1-(5-(trifluoromethyl)pyrimidin-2-yl)piperidin-4-yl)acetamide]", "IC50": "< 100"},
      {"smiles": "C[C@@H](CO[C@@H]1CCN([C@@H]2CCN(c3ncc(C(F)(F)F)cn3)C[C@@H]2F)C1=O)Nc1cn[nH]c(=O)c1C(F)(F)F", "note": "(single isomer, unassigned) [Example 39A]", "IC50": "< 100"},
      {"smiles": "COC[C@@H](CO[C@H]1CCN(C2CCN(c3ccc(C#N)cn3)CC2)C1=O)Nc1cn[nH]c(=O)c1C(F)(F)F", "note": "[Example 17A, 6-(4-((S)-3-((S)-3-methoxy-2-((6-oxo-5-(trifluoromethyl)-1,6-dihydropyridazin-4-yl)amino)propoxy)-2-oxopyrrolidin-1-yl)piperidin-1-yl)nicotinonitrile]", "IC50": "100 to 1000"},
      {"smiles": "CCN(C(=O)COC[C@H](C)Nc1cn[nH]c(=O)c1C(F)(F)F)C1CCN(c2ncc(C(F)(F)F)cn2)CC1", "note": "[Example 7, (S)—N-ethyl-2-(2-((6-oxo-5-(trifluoromethyl)-1,6-dihydropyridazin-4-yl)amino)propoxy)-N-(1-(5-(trifluoromethyl)pyrimidin-2-yl)piperidin-4-yl)acetamide]", "IC50": "< 100"},
      {"smiles": "C[C@@H](CO[C@@H]1C(=O)N(C2CCN(c3ncc(C(F)(F)F)cn3)CC2)CC1(C)C)Nc1cn[nH]c(=O)c1C(F)(F)F", "note": "[Example 35A, 5-(((S)-1-(((S)-4,4-dimethyl-2-oxo-1-(1-(5-(trifluoromethyl)pyrimidin-2-yl)piperidin-4-yl)pyrrolidin-3-yl)oxy)propan-2-yl)amino)-4-(trifluoromethyl)pyridazin-3(2H)-one]", "IC50": "≥ 1000"},
      {"smiles": "C[C@@H](CN[C@H]1CCN(C2CCN(c3ncc(C(F)(F)F)cn3)CC2)C1=O)Nc1cn[nH]c(=O)c1C(F)(F)F", "note": "(single isomer, unassigned) [Example 26A]", "IC50": "≥ 1000"}
    ]}
  ]
}
